# Experimental data as given in US7951538B2, “Method to determine the risk for side effects of an SSRI treatment in a person” (The Board of Trustees of the Leland Stanford Junior …, priority 2001, dated 2011).
# Columns and labels:
# [1] = test system: patients with major depression; assay: Improvement in mood on the Hamilton Depression Rating Scale over the 8 week treatment period; type: in vivo, human; details: not affected by the 102 T/C polymorphism
# Protocol: (§1) All subjects were 65 years of age or older and had been free of 10 major medical problems for at least 3 months. […] Patients were excluded for clinically significant laboratory abnormalities, drug or alcohol abuse, psychosis, recent suicide attempt, and psychiatric conditions other than major depression, or treatment with antidepressant medications within 7 days of commencing the study.
# On day 14, doses were increased to 30 mg once daily. […] All patients Were genotype for the 102 T/C polymorphism using the method described above.
# [2] = test system: patients with major depression; details: human, in vivo
# Description: as §1
# Genomic DNA was extracted from EDTA-treated whole blood using the Puregene DNA extraction kit (Gentra Systems). Genotype for the 102 T/C DNA sequence polymorphism in the 5-HT2A receptor gene was determined using the method of Du et al. (Am J Med Genet. 2000 Feb. 7;96(1):56-60). […]
# Discontinuations were classified as due to any event, and as due to an adverse event. […] Body weight was determined at baseline and at each subsequent visit. Actual medication taken Was determined by counting the number of tablets remaining at each clinic visit. Dosing compliance was determined by as total number of medication doses taken divided by total number of capsules given. […]
smiles,measurement,setting,value
CN1CCN2c3ncccc3Cc3ccccc3C2C1 (stereo not drawn) [mirtazapine],"improvement in mood (decreased depression), Hamilton Depression Rating Scale",[1],statistically significant improvement
same,probability of discontinuing treatment due to side effects,[2],no greater probability
same,severity of side effects,[2],no greater severity
